The results in this text go back to publication PMC9207888, “Hydride Transfer Mechanism of Enzymatic Sugar Nucleotide C2 Epimerization Probed with a Loose-Fit CDP-Glucose Substrate” (ACS Catalysis, 2022).

Common to all, as to type: binding
Test [1] deals with T1, TaCPa2E (Thermodesulfatator atlanticus CDP-paratose 2-epimerase; C2 epimerase) (Thermodesulfatator atlanticus, UniProt Z9RN36Q305).
T1 construct: C-terminal His-tag, pET21a, expressed in E. coli BL21(DE3); 39362 g/mol functional monomer; catalytic Tyr164; SDR superfamily
T1 sequence (Z9RN36Q305 1-340): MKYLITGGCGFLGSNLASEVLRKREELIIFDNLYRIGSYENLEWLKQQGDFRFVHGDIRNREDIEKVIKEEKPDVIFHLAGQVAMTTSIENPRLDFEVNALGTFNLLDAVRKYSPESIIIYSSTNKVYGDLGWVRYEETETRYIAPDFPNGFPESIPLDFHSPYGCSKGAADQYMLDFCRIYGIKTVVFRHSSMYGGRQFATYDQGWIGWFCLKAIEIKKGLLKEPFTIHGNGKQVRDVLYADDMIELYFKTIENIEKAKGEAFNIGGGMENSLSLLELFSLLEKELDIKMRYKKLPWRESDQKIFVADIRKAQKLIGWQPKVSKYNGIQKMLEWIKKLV
Briefly: HPLC quantification of coenzyme released from denatured purified enzyme. The note with it: resting enzyme without substrate, 60 °C, pH 7.5. An excerpt:
HPLC quantification of coenzyme released from denatured purified enzyme on TaCPa2E (Thermodesulfatator atlanticus CDP-paratose 2-epimerase; C2 epimerase) | the NADH content of the resting enzyme in the absence of the substrate

Test [2] concerns the target T1, TaCPa2E (Thermodesulfatator atlanticus CDP-paratose 2-epimerase; C2 epimerase). Briefly: HPLC of coenzyme released from denatured purified enzyme. The note with it: tightly bound, co-purified; extraction not quantitative.
Test [3] concerns the target T2, TaCPa2E (Thermodesulfatator atlanticus CDP-paratose 2-epimerase; C2 epimerase) (Thermodesulfatator atlanticus, UniProt Z9RN36Q305, Y164F).
T2 construct: C-terminal His-tag, pET21a, expressed in E. coli BL21(DE3); 39362 g/mol functional monomer; catalytic Tyr164; SDR superfamily
The test can be described thus: co-purified coenzyme in isolated variant. The note with it: tightly bound.

With `NC(=O)C1=CN([C@@H]2O[C@H](COP(=O)(O)OP(=O)(O)OC[C@H]3O[C@@H](n4cnc5c(N)ncnc54)[C@H](O)[C@@H]3O)[C@@H](O)[C@H]2O)C=CC1` [NADH], in test [1], the “portion of enzyme-NADH in resting enzyme” value turned out to be 4.15 ± 1.0%. `NC(=O)c1ccc[n+]([C@@H]2O[C@H](COP(=O)(O)OP(=O)(O)OC[C@H]3O[C@@H](n4cnc5c(N)ncnc54)[C@H](O)[C@@H]3O)[C@@H](O)[C@H]2O)c1` [NAD^+]: in test [2], the “HPLC of coenzyme released from denatured purified enzyme” value is “enzyme-bound NAD^+ could not be extracted from TaCPa2E reliably”. Further, the “co-purified coenzyme in isolated variant” value in test [3] is recorded as “The purified variant contained tightly bound NAD^+”.
